Data from PubChem BioAssay (NCI).
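Assay format: 96-well plates, 48-hour exposure. GI50 marks 50% less growth. Definition used: TGI = concentration required for complete inhibition of growth.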

Experiments:
Assay in all cases: NCI-60 cell line screen, 48 h
[1] = tested on: 786-0 renal
[2] = tested on: A498 renal
[3] = tested on: A549 NSCLC
[4] = tested on: ACHN renal
[5] = tested on: CCRF-CEM leukemia
[6] = tested on: COLO 205 colon
[7] = tested on: DLD-1 colon
[8] = tested on: DMS 114 small cell lung
[9] = tested on: EKVX NSCLC
[10] = tested on: HCT-116 colon
[11] = tested on: HCT-15 colon
[12] = tested on: HL-60(TB) leukemia
[13] = tested on: HOP-62 NSCLC
[14] = tested on: HOP-92 NSCLC
[15] = tested on: HT29 colon
[16] = tested on: IGROV1 ovarian
[17] = tested on: K-562 leukemia
[18] = tested on: KM12 colon
[19] = tested on: KM20L2 colon
[20] = tested on: LOX IMVI melanoma
[21] = tested on: LXFL 529 NSCLC
[22] = tested on: M14 melanoma
[23] = tested on: M19-MEL melanoma
[24] = tested on: MALME-3M melanoma
[25] = tested on: MOLT-4 leukemia
[26] = tested on: NCI-H23 lung
[27] = tested on: NCI-H460 lung
[28] = tested on: NCI-H522 lung
[29] = tested on: OVCAR-3 ovarian
[30] = tested on: OVCAR-4 ovarian
[31] = tested on: OVCAR-5 ovarian
[32] = tested on: OVCAR-8 ovarian
[33] = tested on: RPMI-8226 leukemia
[34] = tested on: SF-268 CNS
[35] = tested on: SF-295 CNS
[36] = tested on: SF-539 CNS
[37] = tested on: SK-MEL-2 melanoma
[38] = tested on: SK-MEL-28 melanoma
[39] = tested on: SK-MEL-5 melanoma
[40] = tested on: SK-OV-3 ovarian
[41] = tested on: SN12C renal
[42] = tested on: SNB-19 CNS
[43] = tested on: SNB-75 CNS
[44] = tested on: SNB-78 CNS
[45] = tested on: SW-620 colon
[46] = tested on: TK-10 renal
[47] = tested on: U251 CNS
[48] = tested on: UACC-257 melanoma
[49] = tested on: UACC-62 melanoma
[50] = tested on: UO-31 renal

In the case of NCCN.O=N[O-].O=N[O-].O=N[O-].O=N[O-].[Co+3].[K+], the GI50 [1] is reported as > 100 µM, the TGI [1] is reported as > 100 µM and the GI50 [2] is reported as > 100 µM. For the same compound, the TGI [2] was > 100 µM, the GI50 [3] was > 100 µM and the TGI [3] was > 100 µM. The GI50 [4] was > 100 µM, the TGI [4] was > 100 µM and the GI50 [5] was > 100 µM. The TGI [5] was > 100 µM, the GI50 [6] was > 100 µM and the TGI [6] was > 100 µM. The GI50 [7] was > 100 µM, the TGI [7] was > 100 µM and the GI50 [8] was > 100 µM. For the same compound, the TGI [8] was > 100 µM, the GI50 [9] was > 100 µM and the TGI [9] was > 100 µM. The GI50 [10] was > 100 µM, the TGI [10] was > 100 µM and the GI50 [11] was > 100 µM. For the same compound, the TGI [11] was > 100 µM, the GI50 [12] was > 100 µM and the TGI [12] was > 100 µM. For the same compound, the GI50 [13] was > 100 µM, the TGI [13] was > 100 µM and the GI50 [14] was 85.7 µM. For the same compound, the TGI [14] was > 100 µM, the GI50 [15] was > 100 µM and the TGI [15] was > 100 µM. The GI50 [16] was > 100 µM, the TGI [16] was > 100 µM and the GI50 [17] was > 100 µM. For the same compound, the TGI [17] was > 100 µM, the GI50 [18] was > 100 µM and the TGI [18] was > 100 µM. For the same compound, the GI50 [19] was > 100 µM, the TGI [19] was > 100 µM and the GI50 [20] was > 100 µM. The TGI [20] was > 100 µM, the GI50 [21] was > 100 µM and the TGI [21] was > 100 µM. For the same compound, the GI50 [22] was > 100 µM, the TGI [22] was > 100 µM and the GI50 [23] was > 100 µM. The TGI [23] was > 100 µM, the GI50 [24] was > 100 µM and the TGI [24] was > 100 µM. The GI50 [25] was > 100 µM, the TGI [25] was > 100 µM and the GI50 [26] was > 100 µM. For the same compound, the TGI [26] was > 100 µM, the GI50 [27] was > 100 µM and the TGI [27] was > 100 µM. The GI50 [28] was > 100 µM, the TGI [28] was > 100 µM and the GI50 [29] was > 100 µM. For the same compound, the TGI [29] was > 100 µM, the GI50 [30] was > 100 µM and the TGI [30] was > 100 µM. For the same compound, the GI50 [31] was > 100 µM, the TGI [31] was > 100 µM and the GI50 [32] was > 100 µM. For the same compound, the TGI [32] was > 100 µM, the GI50 [33] was > 100 µM and the TGI [33] was > 100 µM. For the same compound, the GI50 [34] was > 100 µM, the TGI [34] was > 100 µM and the GI50 [35] was > 100 µM. The TGI [35] was > 100 µM, the GI50 [36] was > 100 µM and the TGI [36] was > 100 µM. For the same compound, the GI50 [37] was > 100 µM, the TGI [37] was > 100 µM and the GI50 [38] was > 100 µM. For the same compound, the TGI [38] was > 100 µM, the GI50 [39] was > 100 µM and the TGI [39] was > 100 µM. For the same compound, the GI50 [40] was > 100 µM, the TGI [40] was > 100 µM and the GI50 [41] was > 100 µM. The TGI [41] was > 100 µM, the GI50 [42] was > 100 µM and the TGI [42] was > 100 µM. For the same compound, the GI50 [43] was > 100 µM, the TGI [43] was > 100 µM and the GI50 [44] was > 100 µM. The TGI [44] was > 100 µM, the GI50 [45] was > 100 µM and the TGI [45] was > 100 µM. The GI50 [46] was > 100 µM, the TGI [46] was > 100 µM and the GI50 [47] was > 100 µM. For the same compound, the TGI [47] was > 100 µM, the GI50 [48] was > 100 µM and the TGI [48] was > 100 µM. For the same compound, the GI50 [49] was > 100 µM, the TGI [49] was > 100 µM and the GI50 [50] was > 100 µM. For the same compound, the TGI [50] was > 100 µM.
